Several values for one entry are separate records, joined by “and”; a condition that tells them apart may be missing. Equal entries are not always repeated. Where two headings read alike, the source gives them in different places.
Key:
[1] = Safety assessment (adverse events, ECG, vital signs, S-STS) in parts 1 and 2
Method: Safety was assessed using adverse events (AEs) that occurred from signing informed consent through 4 days after the last study drug administration, physical examination, body measurements, and the S‐STS. Safety was also assessed through vital signs (blood pressure, heart rate, respiratory rate, oral temperature), and electrocardiography. In part 2, cardiac telemetry was recorded continuously from ≈10 hours before dosing until 6 hours after dosing in each period (8 hours after dosing in subjects receiving quinidine with an increased QT interval at the 6‐hour assessment).
Safety laboratory assessments included a QuantiFERON‐TB test (Hilden, Germany); pregnancy tests (urine and serum); drug, alcohol, and cotinine screen; hematology; biochemistry; coagulation (in case of abnormal liver function tests); serology; and urinalysis.
Safety data were summarized but not subjected to inferential analysis.

CYP3A4 = test system: CYP3A4; design: method as in ref 6, 7 = [6]; 6 PubChem [Internet]. Bethesda (MD): National Library of Medicine (US), National Center for Biotechnology Information; 2004‐. PubChem Compound Summary for CID 51049968, Rimegepant. https://pubchem.ncb || [7]; PMID 32058712; doi:10.1021/acs.jmedchem.9b01810; 7 Dubowchik GM , Conway CM , Xin AW . Blocking the CGRP pathway for acute and preventive treatment of migraine: the evolution of success . J Med Chem . 2020; 63 ( 13 ): 6600 ‐ 6623 . 32058712 10.1021; conditions: in vitro, human liver microsomes and recombinant human CYP enzymes; cited from earlier work
P‐gp = test system: P‐gp; design: method as in ref 7 = [7]; PMID 32058712; doi:10.1021/acs.jmedchem.9b01810; 7 Dubowchik GM , Conway CM , Xin AW . Blocking the CGRP pathway for acute and preventive treatment of migraine: the evolution of success . J Med Chem . 2020; 63 ( 13 ): 6600 ‐ 6623 . 32058712 10.1021; conditions: in vitro; cited from earlier work
[2] = design: method as in unpublished; conditions: rimegepant 75 mg with itraconazole 200 mg once daily for 7 consecutive days, healthy adults; ref unpublished; cited from earlier work
[3] = cited from earlier work
[4] = Part 1: pharmacokinetics of rimegepant 75 mg ODT alone or coadministered with cyclosporine 200 mg, 2-way crossover
Method: This phase 1, open‐label, randomized, single‐dose, 2‐way crossover, 2‐part, drug‐drug interaction study was conducted at a single center (Syneos Health, Québec, Canada). Subjects were screened within 28 days preceding administration of study medication. In part 1, fasted subjects were randomly assigned to a single dose of rimegepant 75 mg ODT or a single dose of rimegepant 75 mg ODT coadministered with cyclosporine 200 mg (2 × 100‐mg capsules). […] Following the completion of part 1, an interim PK analysis and review of data were performed. Part 2 was to be conducted only if the rimegepant AUC from time 0 to infinity (AUC0‐inf) ratio of geometric means in part 1 was increased by >50% when coadministered with cyclosporine. In part 2, fasted subjects were randomly assigned to a single dose of rimegepant 75 mg ODT or a single dose of rimegepant 75 mg ODT coadministered with quinidine 600 mg (2 × 300‐mg tablets).
In part 1, subjects received 1 of the following treatments under fasting conditions: 1 oral dose of rimegepant 75 mg ODT (Catalent Pharma Solutions, Swindon, UK) or 1 oral dose of rimegepant 75 mg ODT coadministered with cyclosporine 200 mg (Novartis Pharmaceuticals Canada Inc., Dorval, Quebec, Canada). In part 2, subjects received 1 of the following treatments under fasting conditions: 1 oral dose of rimegepant 75 mg ODT alone or 1 oral dose of rimegepant 75 mg ODT coadministered with quinidine 600 mg (Sandoz Inc., West Princeton, New Jersey). In parts 1 and 2, the interval between treatments could not exceed 2 minutes.
For each treatment, subjects were confined from the morning of day −1 until after the 24‐hour postdose blood draw on day 2. Subjects returned for all subsequent blood draws. No food was allowed from at least 10 hours before dosing until at least 4 hours after dosing. Meals were standardized and similar in composition between periods. Except for water given with cyclosporine and quinidine, no fluids were allowed from 1 hour before dosing until 1 hour after dosing. Water was provided ad libitum at all other times. […] When appropriate, subjects were accompanied by a staff member while walking.
In each period, 20 blood samples for PK assessment were collected at the following time points: before dosing; 5, 10, 20, 30, 40, and 50 minutes after dosing; and 1, 1.5, 2, 2.5, 3, 4, 5, 6, 8, 12, 24 (day 2), 48 (day 3), and 72 (day 4) hours after dosing. […] Plasma samples were assayed for rimegepant using ultra‐performance liquid chromatography with tandem mass spectrometry detection (LC‐MS/MS). The quantifiable range was 10 to 5000 ng/mL. Plasma samples containing human ethylenediaminetetraacetic acid (EDTA) K2 plasma as an anticoagulant were processed using automated protein precipitation before LC‐MS/MS analysis. The internal standard was rimegepant‐^13C2d4. The validation was performed using an API 5000 LC/MS/MS system with Analyst software, version 1.6.3 (SCIEX, Framingham, Massachusetts). The pump flow was isocratic, with a flow rate set at 0.600 mL/min. The column was an Acquity UPLC BEH C18, 50×2.1 mm, 1.7 μm (Waters Corporation, Framingham, Massachusetts), which was maintained at a temperature of 60°C and contained Milli‐Q type water/acetonitrile with ammonium acetate and acetic acid. The mass‐to‐charge ratios monitored for rimegepant were 535.4 for the precursor ion and 256.1 for the product ion, whereas for the internal standard, they were 541.4 for the precursor ion and 256 for the product ion. […] Incurred sample reanalysis was carried out on ≈10% of randomly selected samples.
The effects of cyclosporine (part 1) or quinidine (part 2) on the single‐dose PK of rimegepant were evaluated using general linear model procedures in SAS (SAS Institute, Cary, North Carolina).

[5] = parts 1 and 2, rimegepant alone or coadministered
[6] = by cyclosporine 200 mg, single dose rimegepant 75 mg ODT, vs rimegepant alone
[7] = coadministration with cyclosporine 200 mg, rimegepant 75 mg
[8] = strong P‐gp inhibitors (cyclosporine, quinidine), parts 1 and 2

In the case of `N[C@@H]1c2cccnc2[C@H](OC(=O)N2CCC(n3c(=O)[nH]c4ncccc43)CC2)CC[C@H]1c1cccc(F)c1F` [Rimegepant], the “subjects discontinued due to AEs” value ([1]; part 2, rimegepant group: sinus tachycardia, rimegepant‐quinidine group: false‐positive SARS‐CoV‐2 test) is reported as 1 subjects, the “nausea (TEAE), number of subjects” value ([1]; parts 1 and 2) is reported as 1 subjects and the “serious AEs” value [1, 5] is reported as “No serious AEs were reported”. The “severity of TEAEs” value [1, 5] was “mild or moderate”, the tolerability ([1]; single oral dose rimegepant 75 mg ODT alone or coadministered with cyclosporine or quinidine, parts 1 and 2) was “well tolerated and safe” and the metabolising enzyme (CYP3A4) was “primarily metabolized by CYP3A4”. The “substrate of P‐gp transporter” value (P‐gp) was “substrate”, the “increase in rimegepant AUC” value [2] was 400% and the “increase in rimegepant Cmax” value [2] was 40%. The absolute oral bioavailability ([3]; rimegepant ODT) was “≈ 64%”, the “median time to maximum plasma concentration (tmax)” value ([3]; sublingual administration of rimegepant ODT, fasting conditions) was 1.5 h and the “increase in rimegepant AUC0‐inf” value [4, 6] was 60.1% and 60%. The “increase in rimegepant Cmax” value [4, 6] was 41%, the “rimegepant AUC0‐inf geometric mean ratio (90% CI) versus rimegepant alone” value [4, 7] was 1.6 (1.49‐1.72) and the “rimegepant Cmax geometric mean ratio (90% CI) versus rimegepant alone” value [4, 7] was 1.41 (1.27‐1.57). The Tmax ([4]; human, in vivo, po, 75 mg) was 2 h, the Tmax ([4]; human, plasma, po) was 2.5 h and the Tmax ([4]; human, plasma, po, 75 mg) was 1.99 h. The half-life ([4]; human, plasma, po, 75 mg) was 7.59 h, the AUC ([4]; human, plasma, po, 75 mg, AUC0‐inf, arithmetic mean (percent coefficient of variation), part 1, rimegepant ODT 75 mg alone, single oral dose, N 15) was 4270 ng·h/mL and the AUC ([4]; human, plasma, po, 75 mg, AUC0‐inf, geometric least squares mean, part 1, rimegepant 75 mg ODT alone, single oral dose, fasted, N = 15) was 4110 ng·h/mL. For the same compound, the AUC ([4]; human, plasma, po, 75 mg, AUC0‐t, arithmetic mean (percent coefficient of variation), part 1, rimegepant ODT 75 mg alone, single oral dose, N 15) was 4250 ng·h/mL, the AUC ([4]; human, plasma, po, 75 mg, AUC0‐t, geometric least squares mean, part 1, rimegepant 75 mg ODT alone, single oral dose, fasted, N = 15) was 4090 ng·h/mL and the Cmax ([4]; human, plasma, po, 75 mg, arithmetic mean (percent coefficient of variation), part 1, rimegepant ODT 75 mg alone, single oral dose, N 15) was 862 ng/mL. For the same compound, the Cmax ([4]; human, plasma, po, 75 mg, geometric least squares mean, part 1, rimegepant 75 mg ODT alone, single oral dose, fasted, N = 15) was 824 ng/mL, the “CL/F, arithmetic mean (percent coefficient of variation)” value ([4]; part 1, rimegepant ODT 75 mg alone, single oral dose, N 15) was 19.26 (31.84) L/h and the “difference in geometric mean t1/2el between treatments” value ([4]; part 1, rimegepant with cyclosporine vs rimegepant alone) was ≤ 5%. The “increase in rimegepant exposure by strong P‐gp inhibitors, lower bound” value [4, 8] was > 50% and the “increase in rimegepant exposure by strong P‐gp inhibitors, upper bound” value [4, 8] was < 2 fold.

Reference: PMC9311059, “P‐Glycoprotein and Breast Cancer Resistance Protein Transporter Inhibition by Cyclosporine and Quinidine on the Pharmacokinetics of Oral Rimegepant in Healthy Subjects” (Clinical Pharmacology in Drug Development, 2022)
